Consider two compounds from US20130122541A1, “MICROORGANISM PRODUCTION OF HIGH-VALUE CHEMICAL PRODUCTS, AND RELATED COMPOSITIONS, METHODS AND SYSTEMS” (The Regents of the University of Colorado, priority 2010, published 2013).

In one assay the test system is E. coli K12. As to conditions: aerobic, 24 h; putrescine, cadaverine, spermidine 0.1 g/L, sodium bicarbonate 20 mM; value is the 3-HP concentration.
In the next assay the test system is BX3_0194. Nature of the assay: 3-HP production by BX3_0194 in SM3 medium without and with 10 μg/ml cerulenin. Format: cell-based, E. coli. How it is done:
All data are the average of triplicate cultures.
Under these conditions, the specific productivity after 24 hours is 1.3 g 3HP per gDCW.

The next assay has as its system BX3_0195. Nature of the assay: 3-HP production by BX3_0195 in SM3 medium without and with 10 μg/ml cerulenin. In kind it is cell-based, E. coli.
For another assay, the system named is BX3_0206. The assay can be described thus: 3-HP production by BX3_0206 in SM3 medium without and with 10 μg/ml cerulenin. Format: cell-based, E. coli. How it is done: All data are the average of triplicate cultures. […] Under these conditions, the specific productivity after 24 hours is […] 3HP per gDCW.
Setting [1] is: 24 hr, SM3 medium, presence of 10 μg/ml cerulenin.

Protocol for BX3_0195: Cultures were started from freezer stocks by standard practice (Sambrook and Russell, 2001) into 50 mL of LB media plus 100 μg/mL ampicillin and grown to stationary phase overnight at 37° C. with rotation at 225 rpm. Five ml of this culture were transferred to 100 ml of SM3 media plus 40 g/L glucose, 100 μg/ml ampicillin, and 1 mM IPTG in triplicate 250-ml baffled flasks and incubated at 37° C., 225 rpm. […] Dry cell weight (DCW) is calculated as 0.33 times the measured OD600 value, based on baseline DCW to OD600 determinations. All data are the average of triplicate cultures.

For the compound `O=C([O-])O.[Na+]` [sodium bicarbonate], the “Minimum inhibitory concentration (MIC) of 3-HP for E. coli K12 in M9 minimal media supplemented with the substance” value with E. coli K12 stood at 30 mg/mL.

With `C/C=C/C/C=C/CCC(=O)[C@H]1O[C@H]1C(N)=O` [cerulenin], the “specific productivity after 24 hours” value in the assay with BX3_0194 was 1.3 g 3HP per gDCW; with BX3_0195, 0.54 g 3HP per gDCW; in the assay with BX3_0206 (BX3_0206, SM3 medium, 10 μg/ml cerulenin), 0.20 g 3HP per gDCW. Moreover, the “3HP” value in the assay with BX3_0194 (4 hr) is recorded as 0.003 g/L; with BX3_0194 (6 hr) it was 0.14 g/L; with BX3_0194 (8 hr) it was 0.43 g/L; in the assay on BX3_0194 (24 hr), 1.43 g/L; in the assay on BX3_0195 (4 hr) it was 0.003 g/L; in the assay on BX3_0195 (6 hr) it was 0.07 g/L. In addition, the “3HP” value with BX3_0195 (8 hr) was 0.31 g/L; in the assay on BX3_0195 (24 hr) it was 1.17 g/L; in the assay on BX3_0206 (setting [1]), 0.43 g/L. The OD600 is 1.3 in the assay on BX3_0194 (4 hr); 2.6 in the assay on BX3_0194 (6 hr); 3.1 with BX3_0194 (8 hr); 3.3 with BX3_0194 (24 hr); 0.97 with BX3_0195 (4 hr); 1.57 in the assay on BX3_0195 (6 hr). The values for the OD600 in the assay on BX3_0195 (8 hr), in the assay with BX3_0195 (24 hr) and with BX3_0206 (setting [1]) were 2.36, 6.59 and 6.4, respectively.
